Test results reported in publication PMC10812557, “Progressive Design of a Ranatuerin-2 Peptide from Amolops wuyiensis: Enhancement of Bioactivity and In Vivo Efficacy” (Antibiotics, 2023).
Peptide text beside a SMILES is read from it.

Tests used:
[1] = system: E. faecium (NTCC 12697); assay: microbe, parasite or virus in culture; format: cell-based; settings: NTCC 12697, 18 h
In short: (§1)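 Bacteria grown overnight at 37 °C were diluted to 5 × 10^5 CFU/mL in log phase and incubated 18 h at 37 °C with 2-fold peptide dilutions, with absorbance read at 550 nm. MIC was the lowest concentration preventing growth. For MBC, clear wells were plated on Mueller Hinton agar overnight, and MBC was the lowest concentration giving no colonies.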

[2] = system: MRSA (NCTC 12493); assay: microbe, parasite or virus in culture; format: cell-based; settings: MRSA (NCTC 12493)
In short: as §1

[3] = system: S. aureus (NCTC 10788); assay: microbe, parasite or virus in culture; format: cell-based; settings: NCTC 10788, 18 h
In short: as §1

[4] = system: E. coli (ATCC 8739); format: cell-based; settings: ATCC 8739, 18 h
In short: as §1

[5] = system: K. pneumoniae (ATCC 43816); format: cell-based; settings: ATCC 43816, 18 h
In short: as §1

[6] = system: P. aeruginosa (ATCC 9027); format: cell-based; settings: ATCC 9027, 18 h
In short: as §1

[7] = system: S. aureus (NCTC 10788); format: cell-based, Staphylococcus aureus
In short: (§2)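 Bacteria diluted to 5 × 10^5 CFU/mL; MBIC from peptide co-incubated with suspension 16-20 h at 37 °C. For MBEC, overnight biofilms at 37 °C were PBS-rinsed, exposed to peptide (512 μM to 1 μM) for 24 h, methanol-fixed, crystal violet-stained, dissolved in 30% acetic acid, read at 595 nm.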

[8] = system: E. coli (ATCC 8739); format: cell-based, Escherichia coli
In short: as §2

[9] = system: MRSA (NCTC 12493); format: cell-based, methicillin-resistant Staphylococcus aureus; settings: NCTC 12493
In short: as §2

[10] = system: K. pneumoniae (ATCC 43816); format: cell-based, Klebsiella pneumoniae
In short: as §2

[11] = system: E. faecium (NTCC 12697); format: cell-based
In short: as §2

[12] = system: P. aeruginosa (ATCC 9027); format: cell-based, Pseudomonas aeruginosa
In short: as §2

[13] = system: Galleria mellonella larvae; assay: Toxicity in waxworms with no MRSA treatment; format: in vivo; settings: 10 mg/kg
[14] = system: H838; format: cell-based, human; settings: 24 h
In short: (§3)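 Human cancer cells at 8000/well were exposed to peptides at 10^−4 to 10^−9 M in serum-free medium for 24 h at 37 °C. Viability was measured by MTT (2 h), with formazan dissolved in DMSO and absorbance read at 550 nm.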

[15] = system: HCT116; format: cell-based, human; settings: 24 h
In short: as §3

[16] = system: MCF-7; format: cell-based, human; settings: 24 h
In short: as §3

[17] = system: PC-3; format: cell-based, human; settings: 24 h
In short: as §3

[18] = system: U251MG; format: cell-based, human; settings: 24 h
In short: as §3

[19] = system: five human cancer cell lines; format: cell-based; settings: 24 h
Protocol: Five human cancer cell lines of non-small-cell lung cancer H838, human prostate carcinoma PC-3, human neuronal glioblastoma U251MG, human breast cancer cell MCF-7, and colorectal carcinoma HCT116 were used to detect the antiproliferative abilities of R2AW and its five analogues. According to the procedures in a previous article, cells (8000 cells/well) were seeded into the 96-well tissue culture plates and incubated at 37 °C with 5% CO2 overnight. The solutions of R2AW and its analogues at concentrations of 10^−4 M to 10^−9 M were prepared in the serum-free medium. Next, cells in each well were treated with 100 μL of each peptide solution for 24 h. Subsequently, 10 μL of 5 mg/mL MTT (3-(4, 5-Dimethylthiazol-2-yl-)-2, 5-Diphehyltetrazolium Bromide) was added to each well followed by 37 °C incubation for 2 h. After that, the liquid in each well was removed and 100 μL of DMSO was added to dissolve the purple formazan. The plate was placed on a shaking incubator for 10 min, and the absorbance was detected at 550 nm using a Synergy HT plate reader (Biotech, Minneapolis, MN, USA).

CSCC[C@H](NC(=O)[C@H](Cc1ccccc1)NC(=O)CN)C(=O)N[C@@H](CCCCN)C(=O)N[C@H](C(=O)N[C@@H](C)C(=O)N[C@@H](CCCCN)C(=O)N[C@@H](CC(N)=O)C(=O)N[C@H](C(=O)N[C@@H](C)C(=O)N[C@@H](CCCCN)C(=O)N[C@@H](CC(N)=O)C(=O)N[C@H](C(=O)N[C@@H](C)C(=O)N[C@@H](C)C(=O)N[C@H](C(=O)N[C@@H](CC(C)C)C(=O)N[C@@H](CC(C)C)C(=O)N[C@@H](CCCCN)C(=O)N[C@@H](CC(C)C)C(=O)N[C@@H](CC(C)C)C(=O)N[C@@H](CCCCN)C(N)=O)[C@@H](C)O)C(C)C)C(C)C)[C@@H](C)O [[Lys^4,19, Leu^20]R2AW(1-22)-NH2] (H-GFMKTAKNVAKNVAATLLKLLK-NH2)
MBC [1]: 18.9 µg/mL | MIC [1]: 9.4 µg/mL | MBC [2]: 4.7 µg/mL | MIC [2]: 4.7 µg/mL | MBC [3]: 4.7 µg/mL | MIC [3]: 4.7 µg/mL | MBC [4]: 9.4 µg/mL | MIC [4]: 4.7 µg/mL | MBC [5]: 18.9 µg/mL | MIC [5]: 9.4 µg/mL | MBC [6]: 37.7 µg/mL | MIC [6]: 18.9 µg/mL | MBEC [7]: 256 µM | MBIC [7]: 4 µM | MBEC [8]: 256 µM | MBIC [8]: 4 µM | MBEC [9]: > 512 µM | MBIC [9]: 4 µM | MBEC [10]: 256 µM | MBIC [10]: 8 µM | MBEC [11]: > 512 µM | MBIC [11]: 8 µM | MBEC [12]: 512 µM | MBIC [12]: 16 µM | death of larvae with no MRSA treatment [13]: no death | IC50 [14]: 7.83 µM | IC50 [15]: 9.28 µM | IC50 [16]: 10.6 µM | IC50 [17]: 3.67 µM | IC50 [18]: 12.4 µM | IC50 [19]: 3.67 to 12 µM
